Assays:
[1] = test system: rice; assay: Test D flooded paddy test; format: in vivo, Oryza sativa; conditions: 250 g ai/ha, applied to paddy water, visual rating after 13 to 14 days, scale 0 to 100 (0 no effect, 100 complete control)
Summary of the method: (§1)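 Plants at the 2-leaf stage were grown in pots flooded to 3 cm, and compound was applied directly into the paddy water, with depth kept throughout. After 13–14 days in a greenhouse, injury was rated visually against untreated controls on a 0–100 scale (100 = complete control); a dash means not tested.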

[2] = test system: ryegrass, Italian; assay: Test C postemergence; format: in vivo, Lolium multiflorum; conditions: 10 days, 0 to 100 scale (0 no effect, 100 complete control)
Summary of the method: (§2)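 Seeds in loam–sand blend received preemergence directed soil spray of test chemicals in non-phytotoxic solvent with surfactant; postemergence treatment was applied at one- to two-leaf stage (2–10 cm). After 10 days in greenhouse, injury rated visually versus untreated controls, 0 (no effect) to 100 (complete control).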

[3] = test system: pigweed, palmer; assay: Test C preemergence; format: in vivo, Amaranthus palmeri
Summary of the method: as §2

[4] = test system: soybean; assay: Test C preemergence; format: in vivo, Glycine max
Summary of the method: as §2

[5] = test system: galium; assay: Test C postemergence; format: in vivo, Galium aparine; conditions: 10 days, 0 to 100 scale (0 no effect, 100 complete control)
Summary of the method: as §2

[6] = test system: barnyardgrass; assay: Test D flooded paddy test; format: in vivo, Echinochloa crus-galli; conditions: 250 g ai/ha, applied to paddy water, visual rating after 13 to 14 days, scale 0 to 100 (0 no effect, 100 complete control)
Summary of the method: as §1

[7] = test system: wheat; assay: Test C postemergence; format: in vivo, Triticum aestivum; conditions: 10 days, 0 to 100 scale (0 no effect, 100 complete control)
Summary of the method: as §2

[8] = test system: blackgrass; assay: Test C preemergence; format: in vivo, Alopecurus myosuroides
Summary of the method: as §2

[9] = test system: oat, wild; assay: Test C preemergence; format: in vivo, Avena fatua
Summary of the method: as §2

[10] = test system: foxtail, giant; assay: Test C preemergence; format: in vivo, Setaria faberi
Source text: (§3) Seeds of plant species selected from barnyardgrass (Echinochloa crusgalli), blackgrass (Alopecurus myosuroides), corn (Zea mays), foxtail, giant (giant foxtail, Setaria faberi), green foxtail (Setaria viridis), goosegrass (Eleusine indica), kochia (Bassia scoparia), oat, wild (wild oat, Avena fatua), pigweed, palmer (palmer amaranth, palmer pigweed, Amaranthus palmeri), Pigweed, Redroot (redroot pigweed, Amaranthus retroflexus), ragweed (common ragweed, Ambrosia artemisiifolia), ryegrass, Italian ([…] ryegrass, Lolium multiflorum), soybean (Glycine max), and wheat (Triticum aestivum) were planted into a blend of loam soil and sand and treated preemergence with a directed soil spray using test chemicals formulated in a non-phytotoxic solvent mixture which included a surfactant. At the same time, plants selected from these crops and weed species and also galium (catchweed bedstraw, Galium aparine) and horseweed (Erigeron canadensis) were planted in pots containing the same blend of loam soil and sand and treated with postemergence applications of test chemicals formulated in the same manner. Plants ranged in height from 2 to 10 cm and were in the one- to two-leaf stage for the postemergence treatment. Treated plants and untreated controls were maintained in a greenhouse for 10 days, after which time all treated plants were compared to untreated controls and visually evaluated for injury. Plant response ratings, summarized in Table C, are based on a 0 to 100 scale where 0 is no effect and 100 is complete control. A dash (-) response means no test result.

[11] = test system: ragweed; assay: Test C postemergence; format: in vivo, Ambrosia artemisiifolia; conditions: 10 days, 0 to 100 scale (0 no effect, 100 complete control)
Summary of the method: as §2

[12] = test system: kochia; assay: Test C postemergence; format: in vivo, Bassia scoparia; conditions: 10 days, 0 to 100 scale (0 no effect, 100 complete control)
Summary of the method: as §2

[13] = test system: wheat; assay: Test C preemergence; format: in vivo, Triticum aestivum
Summary of the method: as §2

[14] = test system: ducksalad; assay: Test D flooded paddy test; format: in vivo, Heteranthera limosa; conditions: 250 g ai/ha, applied to paddy water, visual rating after 13 to 14 days, scale 0 to 100 (0 no effect, 100 complete control)
Summary of the method: as §1

[15] = test system: kochia; assay: Test C preemergence; format: in vivo, Bassia scoparia
Summary of the method: as §2

[16] = test system: ryegrass, Italian; assay: Test C preemergence; format: in vivo, Lolium multiflorum
Summary of the method: as §2

[17] = test system: barnyardgrass; assay: Test C preemergence; format: in vivo, Echinochloa crusgalli
Summary of the method: as §2

[18] = test system: soybean; assay: Test C postemergence; format: in vivo, Glycine max; conditions: 10 days, 0 to 100 scale (0 no effect, 100 complete control)
Summary of the method: as §2

[19] = test system: foxtail, giant; assay: Test C postemergence; format: in vivo, Setaria faberi; conditions: 10 days, 0 to 100 scale (0 no effect, 100 complete control)
Source text: as §3

[20] = test system: oat, wild; assay: Test C postemergence; format: in vivo, Avena fatua; conditions: 10 days, 0 to 100 scale (0 no effect, 100 complete control)
Summary of the method: as §2

[21] = test system: blackgrass; assay: Test C postemergence; format: in vivo, Alopecurus myosuroides; conditions: 10 days, 0 to 100 scale (0 no effect, 100 complete control)
Summary of the method: as §2

[22] = test system: corn; assay: Test C preemergence; format: in vivo, Zea mays
Summary of the method: as §2

[23] = test system: pigweed, palmer; assay: Test C postemergence; format: in vivo, Amaranthus palmeri; conditions: 10 days, 0 to 100 scale (0 no effect, 100 complete control)
Summary of the method: as §2

[24] = test system: sedge, umbrella; assay: Test D flooded paddy test; format: in vivo, Cyperus difformis; conditions: 250 g ai/ha, applied to paddy water, visual rating after 13 to 14 days, scale 0 to 100 (0 no effect, 100 complete control)
Summary of the method: as §1

[25] = test system: barnyardgrass; assay: Test C postemergence; format: in vivo, Echinochloa crusgalli; conditions: 10 days, 0 to 100 scale (0 no effect, 100 complete control)
Summary of the method: as §2

[26] = test system: ragweed; assay: Test C preemergence; format: in vivo, Ambrosia artemisiifolia
Summary of the method: as §2

[27] = test system: corn; assay: Test C postemergence; format: in vivo, Zea mays; conditions: 10 days, 0 to 100 scale (0 no effect, 100 complete control)
Summary of the method: as §2

[28] = test system: horseweed; assay: Test C postemergence; format: in vivo, Erigeron canadensis; conditions: 10 days, 0 to 100 scale (0 no effect, 100 complete control)
Summary of the method: as §2

[29] = 500 g ai/ha, preemergence, 0 to 100 scale (0 no effect, 100 complete control)
[30] = Preemergence, 125 g ai/ha, 0 to 100 scale, 0 no effect, 100 complete control

CC(C)c1ncn(-c2cc(C(=O)N3CC(C(F)(F)F)Oc4c(Cl)cccc43)ccn2)n1 (single isomer, unassigned) [Compound 331]
Plant response rating, Rice (Flood) [1]: 0 | Plant response rating, Ryegrass, Italian ([2]; 500 g ai/ha, postemergence): 10 | Plant response rating, Ryegrass, Italian ([2]; Postemergence, 125 g ai/ha): 0 | Pigweed, Palmer plant response rating [3, 29]: 100 | Plant response rating, Pigweed, Palmer [3, 30]: 30 | Soybean plant response rating [4, 29]: 0 | Plant response rating, Soybean [4, 30]: 0 | Plant response rating, Galium ([5]; 500 g ai/ha, postemergence): 50 | Plant response rating, Galium ([5]; Postemergence, 125 g ai/ha): 50 | Plant response rating, Barnyardgrass (Flood) [6]: 0 | Plant response rating, Wheat ([7]; 500 g ai/ha, postemergence): 20 | Plant response rating, Wheat ([7]; Postemergence, 125 g ai/ha): 10 | Blackgrass plant response rating [8, 29]: 70 | Plant response rating, Blackgrass [8, 30]: 20 | Oat, Wild plant response rating [9, 29]: 20 | Plant response rating, Oat, Wild [9, 30]: 0 | Foxtail, Giant plant response rating [10, 29]: 60 | Plant response rating, Foxtail, Giant [10, 30]: 20 | Plant response rating, Ragweed ([11]; 500 g ai/ha, postemergence): 0 | Plant response rating, Ragweed ([11]; Postemergence, 125 g ai/ha): 0 | Plant response rating, Kochia ([12]; 500 g ai/ha, postemergence): 70 | Plant response rating, Kochia ([12]; Postemergence, 125 g ai/ha): 40 | Wheat plant response rating [13, 29]: 0 | Plant response rating, Wheat [13, 30]: 0 | Plant response rating, Ducksalad (Flood) [14]: 0 | Kochia plant response rating [15, 29]: 20 | Plant response rating, Kochia [15, 30]: 0 | Ryegrass, Italian plant response rating [16, 29]: 60 | Plant response rating, Ryegrass, Italian [16, 30]: 60 | Barnyardgrass plant response rating [17, 29]: 0 | Plant response rating, Barnyardgrass [17, 30]: 0 | Plant response rating, Soybean ([18]; 500 g ai/ha, postemergence): 100 | Plant response rating, Soybean ([18]; Postemergence, 125 g ai/ha): 90 | Plant response rating, Foxtail, Giant ([19]; 500 g ai/ha, postemergence): 40 | Plant response rating, Foxtail, Giant ([19]; Postemergence, 125 g ai/ha): 30 | Plant response rating, Oat, Wild ([20]; 500 g ai/ha, postemergence): 0 | Plant response rating, Oat, Wild ([20]; Postemergence, 125 g ai/ha): 0 | Plant response rating, Blackgrass ([21]; 500 g ai/ha, postemergence): 20 | Plant response rating, Blackgrass ([21]; Postemergence, 125 g ai/ha): 0 | Corn plant response rating [22, 29]: 0 | Plant response rating, Corn [22, 30]: 0 | Plant response rating, Pigweed, Palmer ([23]; 500 g ai/ha, postemergence): 50 | Plant response rating, Pigweed, Palmer ([23]; Postemergence, 125 g ai/ha): 20 | Plant response rating, Sedge, Umbrella (Flood) [24]: 0 | Plant response rating, Barnyardgrass ([25]; 500 g ai/ha, postemergence): 30 | Plant response rating, Barnyardgrass ([25]; Postemergence, 125 g ai/ha): 10 | Ragweed plant response rating [26, 29]: 0 | Plant response rating, Ragweed [26, 30]: 0 | Plant response rating, Corn ([27]; 500 g ai/ha, postemergence): 40 | Plant response rating, Corn ([27]; Postemergence, 125 g ai/ha): 10 | Plant response rating, Horseweed ([28]; 500 g ai/ha, postemergence): 0 | Plant response rating, Horseweed ([28]; Postemergence, 125 g ai/ha): 0

Source: patent US20260262643A1, “HERBICIDAL BENZOXAZINES” (FMC CORPORATION, priority 2022, published 2026)
